Test results reported in patent US20210253562A1, “ACYLSUFONAMIDE COMPOUNDS USEFUL AS EP3 RECEPTOR ANTAGONISTS” (Janssen Pharmaceutica NV, priority 2018, published 2021).
Several values for one entry are separate records, joined by “and”; a condition that tells them apart may be missing. Identical values can stand only once.

biological target: T1, EP3 membrane (EP3 receptor) (Homo sapiens, UniProt P43115); assay: [3H]-PGE2 binding; EP3 competition binding (SPA); conditions: not given
T1 construct: purchased Millipore HTS092M
T1 sequence (P43115 1-390): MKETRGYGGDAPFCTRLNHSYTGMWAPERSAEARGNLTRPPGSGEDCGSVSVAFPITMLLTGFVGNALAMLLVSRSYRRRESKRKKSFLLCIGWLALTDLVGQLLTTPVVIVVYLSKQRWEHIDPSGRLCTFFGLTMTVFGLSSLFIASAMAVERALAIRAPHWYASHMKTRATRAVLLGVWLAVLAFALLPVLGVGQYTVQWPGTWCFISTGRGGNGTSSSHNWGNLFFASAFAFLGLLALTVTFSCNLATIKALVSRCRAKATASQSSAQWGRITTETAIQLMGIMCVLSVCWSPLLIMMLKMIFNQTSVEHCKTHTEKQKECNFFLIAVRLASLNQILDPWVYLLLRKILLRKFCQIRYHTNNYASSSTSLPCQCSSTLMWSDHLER
Protocol: Biological Example 1: [3H]-PGE2 Binding
EP3 competition binding was determined using the following materials and experimental conditions: • Beads=Perkin Elmer RPNQ0001 • [3H]PGE2=Perkin Elmer NET428025UC • 384-well plate=Perkin Elmer 6007290 • EP3 membrane=Millipore HTS092M • Membrane concentration=2 μg/well • Beads concentration=0.25 mg/well • [3H]-PGE2=2 nM; DMSO—0.1% • Binding buffer=50 mM Tris, 10 mM MgCl2, 1 mM EDTA, PH 7.4.
The reaction system was prepared by mixing 5 μl of unlabeled compound; 5 μl of diluted [3H]-PGE2; 5 μl of diluted membrane; and 15 μl of SPA beads dissolved in binding buffer (adding in the following sequence: Unlabeled compound, [3H]-PGE2, Membrane and Beads).
The binding buffer was removed from refrigeration (@ 4° C.) and allowed to warm to room temperature. Test compound (@ stock concentration of […] in DMSO) was serial dilutes (1:3) with 100% DMSO using Echo plate. Diluted test compound (30 nL) was dispensed to the 384-well assay plate (using Echo 550 Labcyte System). To each well was then added assay buffer (5 μl) and each well was spun. Beads were weighed out, dissolved in assay buffer to a concentration of 0.25 mg/15 μl. Original membrane was diluted with assay buffer to a concentration of 2 μg/5 μl. Original [3H]-PGE2 with diluted with assay buffer to a concentration of 12 nM. To each test well were then added diluted [3H]-PGE2 (5 μl), diluted membrane (5 μl), and dissolved beads (15 μl). The plate was equilibrated at room temperature on a plate shaker for 2 hours and then read with a TOPCOUNT scintillation plate reader. Results were analyzed using a Prism program with non-linear regression, one-site fit for Ki.

Row | Ki | Structure (SMILES)
1 | 467 nM | O=C(NC/C(F)=C1\CCCc2cnn(CCc3ccc(C(F)(F)F)cc3)c21)NS(=O)(=O)c1cc(Cl)c(Cl)s1 [Compound #157, (Z)-4,5-dichloro-N-((2-fluoro-2-(1-(4-(trifluoromethyl)phenethyl)-1,4,5,6-tetrahydro-7H-indazol-7-ylidene)ethyl)carbamoyl)thiophene-2-sulfonamide]
2 | 14 nM | Cc1nn(C)cc1S(=O)(=O)NC(=O)NC/C=C1\CCCc2cnn(Cc3ccc(Cl)cc3Cl)c21 [Compound #184, (E)-N-((2-(1-(2,4-dichlorobenzyl)-1,4,5,6-tetrahydro-7H-indazol-7-ylidene)ethyl)carbamoyl)-1,3-dimethyl-1H-pyrazole-4-sulfonamide]
3 | 4 nM | Cc1c(S(=O)(=O)NC(=O)NC/C=C2\CCCc3cnn(Cc4ccc(Cl)cc4Cl)c32)cnn1C [Compound #172, (E)-N-((2-(1-(2,4-dichlorobenzyl)-1,4,5,6-tetrahydro-7H-indazol-7-ylidene)ethyl)carbamoyl)-1,5-dimethyl-1H-pyrazole-4-sulfonamide]
4 | 6 nM | Cc1cc(S(=O)(=O)NC(=O)NC/C(F)=C2\CCCc3onc(Cc4ccc(Cl)cc4Cl)c32)sc1Cl [Compound #181, (Z)-5-chloro-N-((2-(3-(2,4-dichlorobenzyl)-6,7-dihydrobenzo[d]isoxazol-4(5H)-ylidene)-2-fluoroethyl)carbamoyl)-4-methylthiophene-2-sulfonamide]
5 | 32 nM | Cc1nc(C)c(S(=O)(=O)NC(=O)NC/C(F)=C2\CCCc3cnn(Cc4ccc(Cl)cc4Cl)c32)s1 [Compound #158, (Z)—N-((2-(1-(2,4-Dichlorobenzyl)-1,4,5,6-tetrahydro-7H-indazol-7-ylidene)-2-fluoroethyl)carbamoyl)-2,4-dimethylthiazole-5-sulfonamide]
6 | 1 nM | Cc1cc(S(=O)(=O)NC(=O)NC/C=C2\CCCc3cnn(Cc4ccc(Cl)cc4Cl)c32)sc1Cl [Compound #185, (E)-5-chloro-N-((2-(1-(2,4-dichlorobenzyl)-1,4,5,6-tetrahydro-7H-indazol-7-ylidene)ethyl)carbamoyl)-4-methylthiophene-2-sulfonamide]
7 | 6 nM | O=C(NC/C=C1\CCCc2cnn(C3CCN(Cc4ccccc4)CC3)c21)NS(=O)(=O)c1cc(Cl)c(Cl)s1 [Compound #148, (E)-N-((2-(1-(1-benzylpiperidin-4-yl)-1,4,5,6-tetrahydro-7H-indazol-7-ylidene)ethyl)carbamoyl)-4,5-dichlorothiophene-2-sulfonamide]
8 | 218 nM | Cc1nc2cc(S(=O)(=O)NC(=O)NC/C(F)=C3\CCCc4cnn(Cc5ccc(Cl)cc5Cl)c43)ccc2o1 [Compound #183, (Z)—N-((2-(1-(2,4-dichlorobenzyl)-1,4,5,6-tetrahydro-7H-indazol-7-ylidene)-2-fluoroethyl)carbamoyl)-2-methylbenzo[d]oxazole-5-sulfonamide]
9 | 149 nM | COc1ccc(S(=O)(=O)NC(=O)NC/C(F)=C2\CCCc3cnn(Cc4ccc(Cl)cc4Cl)c32)cc1OC [Compound #174, (Z)—N-((2-(1-(2,4-dichlorobenzyl)-1,4,5,6-tetrahydro-7H-indazol-7-ylidene)-2-fluoroethyl)carbamoyl)-3,4-dimethoxybenzenesulfonamide]
10 | 25 nM | Cn1ncc2ccc(S(=O)(=O)NC(=O)NC/C(F)=C3\CCCc4cnn(Cc5ccc(Cl)cc5Cl)c43)cc21 [Compound #194, (Z)—N-((2-(1-(2,4-dichlorobenzyl)-1,4,5,6-tetrahydro-7H-indazol-7-ylidene)-2-fluoroethyl)carbamoyl)-1-methyl-1H-indazole-6-sulfonamide]
11 | 83 nM | Cc1c(S(=O)(=O)NC(=O)NC/C(F)=C2\CCCc3cnn(Cc4ccc(Cl)cc4Cl)c32)cnn1C [Compound #169, (Z)—N-((2-(1-(2,4-dichlorobenzyl)-1,4,5,6-tetrahydro-7H-indazol-7-ylidene)-2-fluoroethyl)carbamoyl)-1,5-dimethyl-1H-pyrazole-4-sulfonamide]
12 | 3200 nM | O=C(NC/C(F)=C1\CCCn2nnc(-c3ccc(C(F)(F)F)cc3)c21)NS(=O)(=O)c1cc(Cl)c(Cl)s1 [Compound #164, (Z)-4,5-dichloro-N-((2-fluoro-2-(3-(4-(trifluoromethyl)phenyl)-6,7-dihydro-[1,2,3]triazolo[1,5-a]pyridin-4(5H)-ylidene)ethyl)carbamoyl)thiophene-2-sulfonamide]
13 | 18 nM | Cn1nccc1S(=O)(=O)NC(=O)NC/C=C1\CCCc2cnn(Cc3ccc(Cl)cc3Cl)c21 [Compound #171, (E)-N-((2-(1-(2,4-dichlorobenzyl)-1,4,5,6-tetrahydro-7H-indazol-7-ylidene)ethyl)carbamoyl)-1-methyl-1H-pyrazole-5-sulfonamide]
14 | 153 nM | CC(=O)Nc1nc(C)c(S(=O)(=O)NC(=O)NC/C(F)=C2\CCCc3cnn(Cc4ccc(Cl)cc4Cl)c32)s1 [Compound #182, (Z)—N-(5-(N-((2-(1-(2,4-dichlorobenzyl)-1,4,5,6-tetrahydro-7H-indazol-7-ylidene)-2-fluoroethyl)carbamoyl)sulfamoyl)-4-methylthiazol-2-yl)acetamide]
15 | 45 nM | Cn1ncc2cc(S(=O)(=O)NC(=O)NC/C(F)=C3\CCCc4cnn(Cc5ccc(Cl)cc5Cl)c43)ccc21 [Compound #195, (Z)—N-((2-(1-(2,4-dichlorobenzyl)-1,4,5,6-tetrahydro-7H-indazol-7-ylidene)-2-fluoroethyl)carbamoyl)-1-methyl-1H-indazole-5-sulfonamide]
16 | 1 nM | O=C(NC/C=C1\CCCc2cnn(Cc3ccc(Cl)cc3Cl)c21)NS(=O)(=O)c1ccc2[nH]c(=O)oc2c1 [Compound #176, (E)-N-((2-(1-(2,4-dichlorobenzyl)-1,4,5,6-tetrahydro-7H-indazol-7-ylidene)ethyl)carbamoyl)-2-oxo-2,3-dihydrobenzo[d]oxazole-6-sulfonamide]
17 | 6 nM and 7 nM | Cc1cc(S(=O)(=O)NC(=O)NC/C(F)=C2\COCc3cnn(Cc4ccc(Cl)cc4Cl)c32)sc1Cl [Compound #166, (E)-5-chloro-N-((2-(1-(2,4-dichlorobenzyl)-1,4-dihydropyrano[4,3-c]pyrazol-7(6H)-ylidene)-2-fluoroethyl)carbamoyl)-4-methylthiophene-2-sulfonamide]
18 | 22 nM | COc1ccc(S(=O)(=O)NC(=O)NC/C(F)=C2\CCCc3cnn(Cc4ccc(Cl)cc4Cl)c32)cc1F [Compound #159, (Z)—N-((2-(1-(2,4-Dichlorobenzyl)-1,4,5,6-tetrahydro-7H-indazol-7-ylidene)-2-fluoroethyl)carbamoyl)-3-fluoro-4-methoxybenzenesulfonamide]
19 | 612 nM | CC(C)n1cc(S(=O)(=O)NC(=O)NC/C(F)=C2\CCCc3cnn(Cc4ccc(Cl)cc4Cl)c32)cn1 [Compound #170, (Z)—N-((2-(1-(2,4-dichlorobenzyl)-1,4,5,6-tetrahydro-7H-indazol-7-ylidene)-2-fluoroethyl)carbamoyl)-1-isopropyl-1H-pyrazole-4-sulfonamide]
20 | 6 nM | O=C(NC/C(F)=C1\COCc2onc(Cc3ccc(Cl)cc3Cl)c21)NS(=O)(=O)c1cc(Cl)c(Cl)s1 [Compound #145, (E)-4,5-dichloro-N-((2-(3-(2,4-dichlorobenzyl)-5H-pyrano[4,3-d]isoxazol-4(7H)-ylidene)-2-fluoroethyl)carbamoyl)thiophene-2-sulfonamide]
21 | 22 nM | Cn1ccc(S(=O)(=O)NC(=O)NC/C=C2\CCCc3cnn(Cc4ccc(Cl)cc4Cl)c32)n1 [Compound #153, (E)-N-((2-(1-(2,4-dichlorobenzyl)-1,4,5,6-tetrahydro-7H-indazol-7-ylidene)ethyl)carbamoyl)-1-methyl-1H-pyrazole-3-sulfonamide]
22 | 16 nM | COc1cc(S(=O)(=O)NC(=O)NC/C(F)=C2\CCCc3cnn(Cc4ccc(Cl)cc4Cl)c32)ccc1Cl [Compound #175, (Z)-4-Chloro-N-((2-(1-(2,4-dichlorobenzyl)-1,4,5,6-tetrahydro-7H-indazol-7-ylidene)-2-fluoroethyl)carbamoyl)-3-methoxybenzenesulfonamide]

same assay, conditions: unit nM

Row | Ki [nM] | Structure (SMILES)
23 | 0.4 | COc1ccc(S(=O)(=O)NC(=O)NC/C(F)=C2\CCCc3[nH]nc(Cc4ccc(Cl)cc4Cl)c32)cc1Cl [Compound #179, (Z)-3-chloro-N-((2-(3-(2,4-dichlorobenzyl)-1,5,6,7-tetrahydro-4H-indazol-4-ylidene)-2-fluoroethyl)carbamoyl)-4-methoxybenzenesulfonamide]
